Consider three compounds from PMC8406801, “Naringenin Inhibits Platelet Activation and Arterial Thrombosis Through Inhibition of Phosphoinositide 3-Kinase and Cyclic Nucleotide Signaling” (Frontiers in Pharmacology, 2021).

Where “and” joins values, the source holds several entries; their conditions need not be identical. Equal values may be shown once.

Assay [1] deals with VASP Ser239 phosphorylation. As to the kind of experiment: Immunoblotting of phospho-VASP (Ser239) in ADP-stimulated washed platelets, with or without PKA, PKG, PKC inhibitors. It counts as cell-based, rat. The following applies: inhibitor 5 μmol/L before treatment with naringenin, ADP 10 μmol/L. The procedure:
For in vitro platelet aggregation, aliquots of washed platelets were preincubated with vehicle or various concentrations of naringenin for 5 min and stimulated with ADP (10 μmol/L) under stirring at 37°C for 5 min. For ex vivo platelet aggregation, PRP was incubated at 37°C for 5 min and stimulated with ADP (5 μmol/L) under stirring at 37 °C. The platelet aggregation was terminated by adding ethylenediaminetetraacetic acid (EDTA; 10 mM). Total protein was prepared using RIPA lysis buffer and protein content was determined by bicinchoninic acid (BCA) protein assay kit. Equal amounts of platelet proteins (30 μg) were separated on 10% SDS polyacrylamide gel electrophoresis (SDS-PAGE) and then transferred to poly vinylidene difluoride (PVDF) membranes and subjected to western blot. Blots were blocked with TBS-Tween 20 containing 5% BSA and probed with primary antibodies diluted in blocking solution at 4°C overnight followed by incubation with the corresponding HRP secondary antibodies. The protein bands were visualized using enhanced chemiluminescence (ECL).
VASP is a substrate for cAMP- and cGMP- dependent protein kinases, which mediate cAMP- and cGMP-dependent inhibitory signaling in platelets, respectively. Increased cAMP levels followed by the activation of cAMP-dependent protein kinase A (PKA) phosphorylates VASP at position Ser157, whereas the elevation of cGMP leads to VASP phosphorylation at position Ser239 by cGMP-dependent protein kinase G (PKG) ([Aszódi et al., 1999]; [Li et al., 2003a]). To further examine whether naringenin modulates cAMP- or cGMP-mediated inhibitory signaling, the phosphorylation of VASP (Ser157 and Ser239) in washed platelets on stimulation with ADP were measured in the absence or presence of naringenin (100, 200, 400, and 800 μM). […] To further confirm the antiplatelet effects of naringenin through PKA-dependent signaling, the effects of naringenin on platelet aggregation were measured in the presence of PKG inhibitor (Rp-8-Br-PET-cGMPS) and PKA inhibitor (H89).
FIGURE 7 Naringenin promotes VASP phosphorylation. The effects of naringenin on phosphorylation of VASP (at positions Ser 157 and Ser239) were measured in washed platelets upon stimulation with ADP (10 μmol/L) by western blotting (A). The blots shown are representative of three separate experiments. The phosphorylation levels were quantified by ImageJ 1.47v software. The level of phosphorylation obtained with vehicle control (0 μM) was taken as 1 (B,C). R represents the phosphorylation level in resting platelets. Data are expressed as means ± SD (n = 3). *p < 0.05, ***p < 0.001 compared with the vehicle control group. VASP phosphorylation at Ser239 was also analyzed in washed platelets incubated with 5 μmol/L PKA (H89), 30 μmol/L PKG (Rp-8-Br-PET-cGMPS), or 5 μmol/L PKC (GF109203X) inhibitors before treatment with naringenin (D). Washed platelets were incubated with vehicle or naringenin (200 μmol/L) at 37°C in the presence or absence of 5 μmol/L PKA (H89) or 30 μmol/L PKG (Rp-8-Br-PET-cGMPS) inhibitors. After treatment, platelets were stimulated with ADP (10 μmol/L) to trigger aggregation (E). Data are expressed as means ± SD (n = 6). ***p < 0.001 compared with the ADP-treated group, ^# p < 0.05, ^### p < 0.001 compared with naringenin alone or H89 alone.
On the technique in general: Immunoblotting shows a protein as a band on a membrane.

The test system of assay [2] is washed rat platelets. Briefly: ADP (10 μM)-induced aggregation of washed rat platelets. It counts as cell-based. The conditions noted are these: for Aggregation (%): raw data. The procedure: Platelet-rich plasma (PRP) was obtained, and after the addition of 100 ng/ml PGE1, platelets were pelleted at 900 × g for 10 min. […] Washed platelets were preincubated with vehicle (0.4% dimethyl sulfoxide) or various concentrations of naringenin in the presence of 2 mM CaCl2 for 5 min at 37°C, and then further stimulated by ADP (10 μM), thrombin (0.2 U/mL) or collagen (2 μg/ml). The maximum platelet aggregation rate was detected within 5 min with continuous stirring.
Platelet aggregation was induced by ADP using washed platelets and PRP. Washed platelets were preincubated with vehicle (containing 0.4% DMSO) or different doses (100, 200, 400, and 800 μM) of naringenin or naringin for 5 min before activation with ADP (10 μM) for 5 min.
(§1) FIGURE 1 Effects of naringenin and naringin on platelet aggregation. Chemical structure of naringin (A) and naringenin (B). The effects of naringin (C) or naringenin (D) on PRP were measured following stimulation with 10 μmol/L ADP. Rat washed platelet aggregation performed with or without different concentrations of naringin (E) or naringenin (F) was recorded after stimulation with 10 μmol/L ADP. Similarly, Washed platelet aggregation performed with vehicle or various concentrations of naringenin was recorded after stimulation with 0.2 U/mL thrombin (G) or 2 μg/ml collagen (H). WP represents washed platelets. Data are expressed as means ± SD (n = 6), the level of aggregation obtained at 5 min with vehicle-treated samples (0 μM) was taken as 100%. *p < 0.05, **p < 0.01, ***p < 0.001 compared with the vehicle control group.

Assay [3] concerns washed rat platelets. The assay is described as above. The conditions noted are these: H89 (5 μM)+ADP (10 μM); Figure 7E. It counts as cell-based.
Assay [4] concerns PRP (platelet-rich plasma). Briefly: ADP (10 μmol/L)-induced aggregation of PRP in vitro. The assay is classed as cell-based, rat. The following applies: PRP, ADP 10 μmol/L, single replicates; for Aggregation (%): raw data. The procedure: Washed rat platelets were prepared as described previously ([Gao et al., 2011]) with a minor modification. Briefly, rat blood was drawn from the abdominal aorta into the siliconized vacutainers containing 1:9 (v/v) 3.8% sodium citrate, supplemented with 100 ng/ml prostaglandin E1 (PGE1) and centrifuged at 300 × g for 6 min at room temperature. Platelet-rich plasma (PRP) was obtained, and after the addition of 100 ng/ml PGE1, platelets were pelleted at 900 × g for 10 min. Platelets were washed once in Tyrode’s buffer (12 mM NaHCO3, 138 mM NaCl, 5.5 mM glucose, 2.9 mM KCl, 2 mM MgCl2, 0.42 mM NaH2PO4, 10 mM HEPES, pH 7.4) containing 100 ng/ml PGE1, and finally resuspended in Tyrode’s buffer containing 0.02 U/mL apyrase to a final concentration of 4×10^8 cells/mL. Washed platelets were preincubated with vehicle (0.4% dimethyl sulfoxide) or various concentrations of naringenin in the presence of 2 mM CaCl2 for 5 min at 37°C, and then further stimulated by ADP (10 μM), thrombin (0.2 U/mL) or collagen (2 μg/ml). The maximum platelet aggregation rate was detected within 5 min with continuous stirring.
Platelet aggregation was induced by ADP using washed platelets and PRP. Washed platelets were preincubated with vehicle (containing 0.4% DMSO) or different doses (100, 200, 400, and 800 μM) of naringenin or naringin for 5 min before activation with ADP (10 μM) for 5 min. […] For example, naringenin, at doses of 100 and 800 μM, decreased ADP-induced platelet aggregation to 54.5 ± 6.2% and 6.3 ± 1.7%, respectively (n = 6; p < 0.001, control group platelet aggregation was taken as 100%) (Figure 1F). […] Because dietary flavonoids have been reported to bind plasma proteins and cause the lowering of inhibitory potency in PRP ([Wright et al., 2013]), the ability of naringenin and naringin on platelet function in PRP was investigated to compare their effects with washed platelets.
as §1

As for `CN(C)CCCn1cc(C2=C(c3c[nH]c4ccccc34)C(=O)NC2=O)c2ccccc21` [GF109203X, reference compound], in assay [1], the “naringenin-induced phosphorylation of VASP at Ser239 after kinase inhibitor” value was “only small changes”.

`O=S(=O)(NCCNCC=Cc1ccc(Br)cc1)c1cccc2cnccc12` [H89, N-[2-(p-bromocinnamylamino)ethyl]-5-isoquinolinesulfonamide]: the “level of platelet aggregation, inhibitor alone” value in the assay on washed rat platelets [2] (ADP 10 μmol/L, inhibitor 5 μmol/L, without naringenin) is on record as “did not affect the level of platelet aggregation”. Moreover, in the assay on washed rat platelets [2] (inhibitor 5 μmol/L pre-treatment, naringenin 200 μmol/L, ADP 10 μmol/L), the “platelet aggregation when incubated with naringenin after kinase inhibitor” value is on record as “significantly restored platelet aggregation levels”. Further, the “naringenin-induced phosphorylation of VASP at Ser239 after kinase inhibitor” value in assay [1] was “inhibited the increase in phosphorylation of VASP at Ser239”. For the same compound, in the assay with washed rat platelets [3], the “Aggregation (%)” value is 62.7% and 67.1% and 68.1% and 68.8% and 64.1% and 69.2%.

On to `C[C@@H]1O[C@@H](O[C@H]2[C@H](Oc3cc(O)c4c(c3)O[C@H](c3ccc(O)cc3)CC4=O)O[C@H](CO)[C@@H](O)[C@@H]2O)[C@H](O)[C@H](O)[C@H]1O` [Naringin, naringin, reference compound], for which the activity at 200 µM was found to be 72.6% with washed rat platelets [2] (Rattus norvegicus, Platelet, washed platelets, ADP 10 μmol/L, compound 200 μM, single replicates, read-out: Aggregation % of control) and 95.4% in assay [4] (Rattus norvegicus, compound 200 μM, read-out: Aggregation % of control). In addition, the activity at 400 µM in the assay on washed rat platelets [2] (Rattus norvegicus, Platelet, washed platelets, ADP 10 μmol/L, compound 400 μM, single replicates, read-out: Aggregation % of control) is 79.8%; in assay [4] (Rattus norvegicus, compound 400 μM, read-out: Aggregation % of control) it was 97.6%. Besides, in the assay with washed rat platelets [2] (washed platelets, ADP 10 μM, compound 800 μM, mean ± SD, n = 6), the “ADP-induced platelet aggregation (control group taken as 100%)” value worked out at 70.8 ± 7.1%. The “Aggregation (%)” value was 66.8% and 55.6% and 57.3% and 61.8% and 52.0% and 65.0% with washed rat platelets [2] (washed platelets, ADP 10 μmol/L, compound 100 μM, single replicates); 51.3% and 57.7% and 55.0% and 59.4% and 50.0% and 54.0% in the assay with washed rat platelets [2] (washed platelets, ADP 10 μmol/L, compound 200 μM, single replicates); 56.4% and 55.5% and 55.4% and 51.0% and 52.3% and 46.6% with washed rat platelets [2] (washed platelets, ADP 10 μmol/L, compound 400 μM, single replicates); 58.1% and 48.7% and 49.2% and 43.6% and 47.5% and 53.0% in the assay on washed rat platelets [2] (washed platelets, ADP 10 μmol/L, compound 800 μM, single replicates); 56.0% and 55.8% and 53.6% and 54.0% and 60.0% in assay [4] (compound 100 μM); 54.6% and 53.1% and 52.4% and 49.6% and 54.8% in assay [4] (compound 200 μM). Besides, the “Aggregation (%)” value in assay [4] (compound 400 μM) was 55.9% and 54.0% and 46.2% and 49.8% and 51.2%; in assay [4] (compound 800 μM), 46.8% and 40.4% and 51.9% and 43.4%. For the same compound, the “Aggregation % of control” value in the assay with washed rat platelets [2] (washed platelets, ADP 10 μmol/L, compound 100 μM, single replicates, 100 µM) is 94.6 % of control and 78.7 % of control and 81.1 % of control and 87.5 % of control and 73.6 % of control and 92.0 % of control; in the assay with washed rat platelets [2] (washed platelets, ADP 10 μmol/L, compound 200 μM, single replicates, 200 µM), 81.7 % of control and 77.8 % of control and 84.1 % of control and 70.8 % of control and 76.4 % of control; in the assay on washed rat platelets [2] (washed platelets, ADP 10 μmol/L, compound 400 μM, single replicates, 400 µM), 78.6 % of control and 78.4 % of control and 72.2 % of control and 74.0 % of control and 66.0 % of control; in the assay on washed rat platelets [2] (washed platelets, ADP 10 μmol/L, compound 800 μM, single replicates, 800 µM) it was 82.2 % of control and 68.9 % of control and 69.6 % of control and 61.7 % of control and 67.2 % of control and 75.0 % of control; in assay [4] (compound 100 μM, 100 µM), 97.5 % of control and 100.8 % of control and 93.6 % of control and 94.3 % of control and 104.8 % of control; in assay [4] (compound 200 μM, 200 µM) it was 92.8 % of control and 97.1 % of control and 91.5 % of control and 86.6 % of control and 95.7 % of control. For the same compound, the “Aggregation % of control” value in assay [4] (compound 400 μM, 400 µM) was 96.9 % of control and 94.3 % of control and 80.7 % of control and 87.0 % of control and 89.4 % of control; in assay [4] (compound 800 μM, 800 µM), 85.1 % of control and 85.9 % of control and 70.6 % of control and 90.7 % of control and 75.8 % of control. In addition, the activity at 100 µM in assay [4] (Rattus norvegicus, compound 100 μM, read-out: Aggregation % of control) amounted to 97.8%.
